Source: the supplement of paper PMC10307832

Key:
Test in all cases: relative viability (nuclei count vs DMSO), 5 days (fraction); higher = more cells survive
DM3189 + Pictilisib = compound: C1CN(CCN1)C2=CC=C(C=C2)C3=CN4C(=C(C=N4)C5=CC=NC6=CC=CC=C56)N=C3 [DM3189] + CS(=O)(=O)N1CCN(Cc2cc3nc(-c4cccc5[nH]ncc45)nc(N4CCOCC4)c3s2)CC1 [Pictilisib] (partner 1 µM)
Outline: (§1)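 Relative viability equals treated-well nuclei counts divided by vehicle-well nuclei counts. Counts came from 4× images of lung cancer cell lines grown in 1536-well plates for 5 days after pin-tool dosing on the day after seeding. Dosing used one drug alone or a fixed anchor-drug dose plus five library-drug doses (not always all listed) in √10 steps, and values are medians of duplicate plates.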

DM3189 + Alpelisib = compound: C1CN(CCN1)C2=CC=C(C=C2)C3=CN4C(=C(C=N4)C5=CC=NC6=CC=CC=C56)N=C3 [DM3189] + Cc1nc(NC(=O)N2CCC[C@H]2C(N)=O)sc1-c1ccnc(C(C)(C)C(F)(F)F)c1 [Alpelisib] (partner 2 µM)
Outline: as §1

DM3189 + Tozasertib = compound: C1CN(CCN1)C2=CC=C(C=C2)C3=CN4C(=C(C=N4)C5=CC=NC6=CC=CC=C56)N=C3 [DM3189] + Cc1cc(Nc2cc(N3CCN(C)CC3)nc(Sc3ccc(NC(=O)C4CC4)cc3)n2)n[nH]1 [Tozasertib] (partner 0.1 µM)
Outline: as §1

DM3189 + Phenformin = compound: C1CN(CCN1)C2=CC=C(C=C2)C3=CN4C(=C(C=N4)C5=CC=NC6=CC=CC=C56)N=C3 [DM3189] + N=C(N)NC(=N)NCCc1ccccc1 [Phenformin] (partner 250 µM)
Outline: as §1

DM3189 + Vorinostat = compound: C1CN(CCN1)C2=CC=C(C=C2)C3=CN4C(=C(C=N4)C5=CC=NC6=CC=CC=C56)N=C3 [DM3189] + O=C(CCCCCCC(=O)Nc1ccccc1)NO [Vorinostat] (partner 1 µM)
Outline: as §1

| Cell Line | relative viability (DM3189 + Pictilisib; first compound 0.08 µM) | relative viability (DM3189 + Pictilisib; first compound 0.253 µM) | relative viability (DM3189 + Pictilisib; first compound 0.8 µM) | relative viability (DM3189 + Pictilisib; first compound 2.53 µM) | relative viability (DM3189 + Alpelisib; first compound 0.08 µM) | relative viability (DM3189 + Alpelisib; first compound 0.253 µM) | relative viability (DM3189 + Alpelisib; first compound 0.8 µM) | relative viability (DM3189 + Alpelisib; first compound 2.53 µM) | relative viability (DM3189 + Tozasertib; first compound 0.08 µM) | relative viability (DM3189 + Tozasertib; first compound 0.253 µM) | relative viability (DM3189 + Tozasertib; first compound 0.8 µM) | relative viability (DM3189 + Tozasertib; first compound 2.53 µM) | relative viability (DM3189 + Phenformin; first compound 0.08 µM) | relative viability (DM3189 + Phenformin; first compound 0.253 µM) | relative viability (DM3189 + Phenformin; first compound 0.8 µM) | relative viability (DM3189 + Phenformin; first compound 2.53 µM) | relative viability (DM3189 + Vorinostat; first compound 0.08 µM) | relative viability (DM3189 + Vorinostat; first compound 0.253 µM) | relative viability (DM3189 + Vorinostat; first compound 0.8 µM) | relative viability (DM3189 + Vorinostat; first compound 2.53 µM) |
| --- | --- | --- | --- | --- | --- | --- | --- | --- | --- | --- | --- | --- | --- | --- | --- | --- | --- | --- | --- | --- |
| NCI-H358 | 0.374 | 0.294 | 0.327 | 0.322 | 0.851 | 0.83 | 0.779 | 0.492 | 0.12 | 0.0936 | 0.102 | 0.11 | 0.453 | 0.311 | 0.323 | 0.269 | 0.746 | 0.585 | 0.628 | 0.595 |
| NCI-H441 | 0.51 | 0.563 | 0.42 | 0.409 | 0.877 | 0.595 | 0.837 | 0.467 | 0.943 | 0.57 | 0.681 | 0.738 | 0.825 | 0.959 | 0.794 | 0.738 | 0.879 | 0.772 | 0.885 | 0.674 |
| NCI-H460 | 0.387 | 0.464 | 0.223 | 0.43 | 0.507 | 0.567 | 0.44 | 0.184 | 0.384 | 0.393 | 0.12 | 0.277 | 0.737 | 0.535 | 0.451 | 0.545 | 1.02 | 0.725 | 0.654 | 0.862 |
| NCI-H520 | 0.28 | 0.234 | 0.219 | 0.19 | 0.837 | 0.633 | 0.637 | 0.48 | 0.491 | 0.33 | 0.364 | 0.313 | 0.577 | 0.309 | 0.324 | 0.366 | 0.712 | 0.633 | 0.57 | 0.292 |
| NCI-H596 | 0.419 | 0.247 | 0.412 | 0.407 | 0.578 | 0.517 | 0.386 | 0.478 | 0.826 | 0.869 | 0.937 | 0.92 | 0.724 | 0.802 | 0.78 | 0.709 | 0.606 | 0.669 | 0.605 | 0.756 |
| NCI-H647 | 0.381 | 0.334 | – | 0.381 | 1.01 | 0.704 | 0.659 | 0.179 | 0.259 | 0.212 | 0.408 | 0.235 | 0.664 | 0.4 | 0.546 | 0.228 | 0.624 | 0.531 | 0.562 | 0.343 |
| NCI-H650 | 0.976 | 0.888 | 0.741 | 0.845 | 1.35 | 1.07 | 0.975 | 0.915 | 0.713 | 0.667 | 0.623 | 0.696 | 0.518 | 0.497 | 0.47 | 0.489 | 0.391 | 0.501 | 0.383 | 0.428 |
| NCI-H661 | 0.44 | 0.453 | 0.509 | 0.389 | 0.817 | 0.802 | 0.674 | 0.814 | 0.36 | 0.346 | 0.351 | 0.336 | 0.268 | 0.271 | 0.268 | 0.281 | 0.826 | 0.796 | 0.809 | 0.883 |
| NCI-H727 | 0.593 | 0.347 | – | 0.227 | 0.638 | 0.503 | – | 0.56 | 0.648 | 0.568 | 0.654 | 0.578 | 0.628 | 0.517 | – | 0.533 | 1.43 | 1.05 | 0.972 | 1.13 |
| NCI-H838 | 0.521 | 0.35 | 0.317 | 0.397 | 0.965 | 0.981 | 0.749 | 0.989 | 0.256 | 0.249 | 0.255 | 0.281 | 0.775 | 0.507 | 0.471 | 0.385 | 0.757 | 0.675 | 0.65 | 0.733 |
| NCI-H1355 | 0.539 | 0.399 | 0.311 | 0.362 | 0.884 | 0.81 | 0.678 | 0.812 | 0.547 | 0.55 | 0.513 | 0.438 | 0.438 | 0.43 | 0.405 | 0.394 | 0.64 | 0.636 | 0.504 | 0.565 |
| NCI-H1395 | 0.625 | 0.618 | 0.459 | 0.562 | 0.927 | 0.871 | 1.04 | 1.34 | 0.69 | 0.689 | 0.697 | 0.799 | 0.465 | 0.431 | 0.456 | 0.442 | 1.08 | 0.616 | – | 0.731 |
| NCI-H1437 | 0.425 | 0.438 | 0.411 | 0.537 | 0.837 | 0.931 | 0.855 | 0.905 | 0.396 | 0.369 | 0.379 | 0.397 | 0.363 | 0.325 | 0.308 | 0.323 | 0.917 | 0.916 | 0.843 | 1.05 |
| NCI-H1651 | 0.713 | 0.578 | 0.467 | 0.468 | 1.23 | 0.986 | 0.924 | 0.797 | 0.704 | 0.722 | 0.628 | 0.649 | 0.45 | 0.339 | 0.335 | 0.272 | 0.657 | 0.587 | 0.549 | 0.629 |
| NCI-H1666 | 0.439 | 0.595 | 0.508 | 0.437 | 1.04 | 1.17 | 1.07 | 0.793 | 0.602 | 0.648 | 0.737 | 0.565 | 0.629 | 0.545 | 0.549 | 0.592 | 1.04 | 1.02 | 1.09 | – |
